Measured values taken from patent US6200966A, “Compositions for inhibiting airway wall inflammation” (Amrad Operations Pty. Ltd., priority 1996, dated 2001).

Legend:
[1] = tested on: human cultured airway smooth muscle cells; experiment: Protein synthesis: [3H]-leucine incorporation; type: cell-based; conditions: for 5HT-stimulated increase in protein synthesis: 5HT 10 nM, 0.3-10 μM
Procedure: Human bronchial airway smooth muscle was obtained from macroscopically normal lung resection specimens from lung transplant donors or recipients provided by the Alfred Hospital (Melbourne). Cultures were prepared as previously described in detail (Tomlinson et al., 1994). Briefly, the tissue was partially digested in Dulbecco's Modified Eagle's Medium (DMEM), [supplemented with 2 mM L-glutamine, 100 μg/ml streptomycin, 100 U/ml penicillin-G, 2 μg/ml amphotericin B, and 0.25% w/v bovine serum albumin (BSA)] containing 3 mg/ml collagenase for 30 minutes at 37° C. and approximately 0.5 g smooth muscle was further digested by a 2 hour incubation in 0.5 mg/ml elastase, followed by an 18 hour incubation in collagenase (3 mg/ml) at 37° C. Cell suspensions ere centrifuged (10 min, 100×g, 25° C.), washed three times in supplemented DMEM, resuspended in 25 ml DMEM containing 10% (v/v) heat-inactivated foetal calf serum (FCS), seeded into 25 cm^2 Falcon culture flasks and incubated (37° C., 5% CO2) for 7 to 10 days until monolayer confluence was reached. Cells were then harvested weekly by 10 min exposure to 0.5% trypsin, 1 mM EDTA and passaged at a 1:3 split ratio into 75 cm^2 Falcon culture flaskes. Cells at passage numbers 3 to 15 were used for experiments.
Cells were subcultured into 24-well plates at a 1:3 ratio and allowed to grow to monolayer confluency over a 72-96 hour period in an atmosphere of 5% CO2 in air at 37° C. The serum-containing medium was replaced with serum-free DMEM for a 24 hour period to produce growth arrest. In some experiments, the cells were pretreated with 2-methoxyestradiol 30 min before the addition of mitogen. The stimulant (mitogen) was added to the appropriate wells together with a supplement containing insulin, transferrin, and selenium (Monomed A, 1% v/v). Monomed A was added to provide progression factors which are essential for the mitogenic activity of growth factors such as thrombin, epidermal growth factor (EGF) and basic fibroblast growth factor (bFGF) (Stewart et al., 1995a). Mitogens and inhibitors were left in contact with cells from the time of addition until the end of the experiment, unless indicated otherwise. Cells were incubated for 24 hours (37° C., 5% CO2) before being pulsed with [^3 H]-thymidine (1 μCi/ml for four hours) to measure incorporation of radiolabel into newly synthesized DNA, according to out previous study (Stewart et al., 1995). Incorporation of radioactivity was determined by filtration at the end of the pulse-labelling period. The medium containing the radioactivity was aspirated and the cells were lysed by addition of 200 μl of 0.1M NaOH. The DNA was immobilised by filtration in a binding harvester (Packard Filtermate 196) on glass fibre filters (Packard, standard), which were then washed with 3×3 ml volumes of distilled water and a single 1 ml volume of 100% ethanol. The dried filters were counted in a Packard Topcount liquid scintillation counter. Protein synthesis rates were determined in experiments of analogous design to those described above, but [^3 H]-leucine replaced [^3 H]-thymidine in the pulsing incubation of 4 hours. Furthermore, in experiments to determine the effects of mitogens and 2-methoxyestradiol on the rate of protein synthesis, incubations with mitogen were carried out for a period of 48 hours. The longer duration of these experiments was required to allow sufficient time for cell division to occur.
Each treatment in an individual experiment was carried out in quadruplicate for DNA and protein synthesis experiments. Each experiment was performed in at least three different cultures obtained from three different individuals. For cell counting, single incubations were carried out in three cultures. Results are presented as grouped data from multiple cultures and are expressed as mean ±S. E. of n cultures. The degree of increment was calculated by dividing the response of treated wells by that of the control wells on the same 24-well plate.

tubulin = conditions: literature; cited from earlier work
smooth muscle = conditions: Goyache et al., 1995; cited from earlier work

With `COc1cc2c(cc1O)CC[C@@H]1[C@@H]2CC[C@]2(C)[C@@H](O)CC[C@@H]12` [2-methoxyestradiol, 1,3,5[10]-estratriene-2,3,17-triol 2-methylether] the “5HT-stimulated increase in protein synthesis” value [1] was “decreased”, the “5HT-stimulated increase in protein synthesis” value ([1]; listed as 2-methoxyoestradiol) was “inhibited” and the “[3H]-leucine incorporation, compound alone, 0.3 μM” value ([1]; unstimulated, 0.3 μM) was “small stimulation”. For the same molecule, the “microtubule disruption / tubulin polymerisation” value (tubulin) was “microtubule disruption via binding at the colchicine site on tubulin” and the “calcium influx into smooth muscle” value (smooth muscle) was “decrease calcium influx”.
